In PMC7408095 (Pharmaceutics, 2020):
Where two headings read alike, the source gives them in different places. Each block holds one compound with its values, some of them ahead of it.

Tests used:
[1] = Plasma pharmacokinetics of atorvastatin, 2-OH AT and 4-OH AT in rats (UPLC-MS/MS); conditions: for AUC0-t / AUC0-∞ / Cmax / metabolite/atorvastatin Cmax ratio: rat plasma
Protocol: (§1) The concentration of each of the working solutions was 10 μg/mL. The sample preparation involved liquid-liquid extraction. […] The analytes were separated in a Zorbax Plus C18 column (100 × 2.1 mm; 3.5 μm) (Agilent Technologies, Santa Clara, California, USA) at a column temperature of 40 °C. The mobile phase was a mixture of de-ionized water (A) and acetonitrile (B), both containing 0.1% (v/v) formic acid. […] The mobile phase flow was set to 0.3 mL/min. The eluent from the HPLC column was introduced directly to the MS interface, using electrospray ionization in the positive ion mode. The MS parameters were as follows: interface temperature, 350 °C; DL temperature, 250 °C; heat block temperature, 400 °C; nebulizing gas flow, 2 L/min; and drying gas flow, 15 L/min. The electrospray needle voltage was 3.5 kV. The specific transitions for the analytes were monitored using the multiple reaction monitoring (MRM) mode.

[2] = rat, in vivo, po, 20 mg/kg
Protocol: as §1

[3] = Adverse effects of the doses used in healthy rats; type: in vivo
[4] = rat, in vivo, 20 mg/kg; cited from earlier work
[5] = rat, in vivo, po, 100 mg/kg
Description: (§2) The Phoenix® WinNonlin version 8.0 software (Certara, Princeton, New Jersey, USA) was used for the calculation of the following pharmacokinetic parameters: • The elimination rate constant (ke); • The absorption rate constant (ka); • The elimination half-life (t1/2); • The maximum plasma concentration (Cmax); • The time to reach the Cmax (tmax); • The total area under the concentration–time curve (AUC0-t and AUC0--∞); • The apparent plasma drug clearance (Cl/F); • The apparent volume of distribution (Vd/F).

[6] = cited from earlier work
[7] = Plasma pharmacokinetics of sorafenib and sorafenib N-oxide in rats (HPLC-UV); conditions: for AUC0-t / AUC(0-inf) / Cmax / Vd/F / k el / half-life: male, Wistar, rat, plasma, po, 100 mg/kg; for AUC0-t / AUC(0-inf) / Cmax / Vd/F / k el / ka: rat plasma; for AUC(0-inf): AUC0-∞; for k el: kel; for half-life: t1/2, rat plasma;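 for all read-outs here: pharmacokinetic parameters were computed with Phoenix WinNonlin 8.0 software from the plasma concentration–time curve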
Description: as §2

[8] = cited from earlier work; remark: listed apart in the source
[9] = Plasma pharmacokinetics of metformin in rats (HPLC-UV)
Description: as §2

in vivo = conditions: male, Wistar, rat, plasma, po, 100 mg/kg
Description: as §2

[10] = single oral atorvastatin 20 mg/kg b.w. alone (IVAT group)
[11] = single oral sorafenib 100 mg/kg + atorvastatin 20 mg/kg b.w. (ISOR+AT group)
[12] = rats, ISOR+AT group vs IVAT group
[13] = single oral sorafenib 100 mg/kg + metformin 100 mg/kg b.w. (IISOR+MET group)
[14] = single oral sorafenib 100 mg/kg b.w. alone (IIISOR group)
[15] = rats, IISOR+MET group vs IIISOR group
[16] = rats, ISOR+AT group vs IIISOR group
[17] = rat plasma, single oral sorafenib 100 mg/kg + metformin 100 mg/kg b.w. (IISOR+MET group)

SMILES: CC(C)c1c(C(=O)Nc2ccccc2O)c(-c2ccccc2)c(-c2ccc(F)cc2)n1CCC(O)CC(O)CC(=O)O (stereo not drawn) [2-OH AT, 2-hydroxy atorvastatin]
AUC0-t [1, 10]: 617.32 ± 277.54 (45.0) ng × h/mL
AUC0-∞ [1, 10]: 695.68 ± 297.16 (42.7) ng × h/mL
Cmax [1, 10]: 175.20 ± 116.62 (66.6) ng/mL
metabolite/atorvastatin Cmax ratio [1, 10]: 2.35 ± 1.12 (47.6) ng/mL
AUC0-t [1, 11]: 958.91 ± 342.91 (35.8) ng × h/mL
AUC0-∞ [1, 11]: 993.97 ± 343.87 (34.6) ng × h/mL
Cmax [1, 11]: 185.82 ± 90.16 (48.5) ng/mL
metabolite/atorvastatin Cmax ratio [1, 11]: 2.43 ± 1.06 (43.6) ng/mL
change in the 2-OH AT/atorvastatin ratio for AUC0-t [1, 12]: −19.4%
change in the 2-OH AT/atorvastatin ratio for AUC0-∞ [1, 12]: −26.0%
increase in AUC caused by sorafenib (abstract) [1, 12]: 55.3%

AUC0-t [2]: 14.63 ± 5.57 (38.1) ng × h/mL
AUC0-∞ [2]: 19.22 ± 7.06 (36.7) ng × h/mL
SMILES: CC(C)c1c(C(=O)Nc2ccc(O)cc2)c(-c2ccccc2)c(-c2ccc(F)cc2)n1CC[C@@H](O)C[C@@H](O)CC(=O)O [4-OH AT, 4-hydroxy atorvastatin]

SMILES: CC(C)c1c(C(=O)Nc2ccccc2)c(-c2ccccc2)c(-c2ccc(F)cc2)n1CC[C@@H](O)C[C@@H](O)CC(=O)O [Atorvastatin, atorvastatin]
adverse effects ([3]; 20 mg/kg single oral dose): did not cause any adverse effects
safety [4]: safe

AUC0-t [5]: 4.10 ± 1.56 (38.1) µg × h/mL
AUC0-∞ [5]: 8.61 ± 2.19 (25.4) µg × h/mL
k el [5]: 0.016 ± 0.010 (60.9) h^−1
tmax [5]: 16.38 ± 8.21 (50.1) h
SMILES: CNC(=O)c1cc(Oc2ccc(NC(=O)Nc3ccc(Cl)c(C(F)(F)F)c3)cc2)cc[n+]1[O-] [Sorafenib N-oxide, sorafenib N-oxide]

AUC0-t [7, 11]: 105000 ± 18900 ng·h/mL
AUC0-t [7, 13]: 35200 ± 8360 ng·h/mL
AUC0-t [7, 14]: 62800 ± 16100 ng·h/mL
AUC(0-inf) [7, 11]: 106000 ± 19300 ng·h/mL
AUC(0-inf) [7, 13]: 36800 ± 8960 ng·h/mL
Cmax [7, 11]: 3660 ± 1210 ng/mL
Cmax [7, 13]: 1270 ± 380 ng/mL
Vd/F [7, 11]: 9.98 ± 2.48 L
Vd/F [7, 13]: 34.1 ± 18.7 L
Vd/F [7, 14]: 25.3 ± 11.6 L
k el [7, 11]: 1.39e-05 s⁻¹
k el [7, 13]: 1.39e-05 s⁻¹
k el [7, 14]: 9.72e-06 s⁻¹
half-life [7, 11]: 14.7 ± 3.17 h
half-life [7, 13]: 16.3 ± 3.72 h
half-life [7, 14]: 21.9 ± 7.79 h
ka [7, 11]: 0.20 ± 0.11 (53.2) h^−1
ka [7, 13]: 0.35 ± 0.23 (66.8) h^−1
ka [7, 14]: 0.74 ± 0.31 (42.5) h^−1
decrease in AUC0-t in the presence of metformin [7, 15]: 44.0%
decrease in AUC0-∞ in the presence of metformin [7, 15]: 45.1%
decrease in ka in the presence of metformin [7, 15]: 0.5 fold
increase in clearance in the presence of metformin [7, 15]: 76.3%
decrease in ka with co-administered atorvastatin [7, 16]: 73.0%
decrease in t1/2 with co-administered atorvastatin [7, 16]: 0.3 fold
increase in AUC0-t with co-administered atorvastatin [7, 16]: 66.6%
increase in AUC0-∞ with co-administered atorvastatin [7, 16]: 58.7%
increase in AUC with co-administered atorvastatin (abstract) [7, 16]: 66.6%
increase in Cmax with co-administered atorvastatin [7, 16]: 134.6%
increase in kel with co-administered atorvastatin [7, 16]: 42.9%
increase in tmax with co-administered atorvastatin [7, 16]: 116.9%
SMILES: CNC(=O)c1cc(Oc2ccc(NC(=O)Nc3ccc(Cl)c(C(F)(F)F)c3)cc2)ccn1 [Sorafenib, sorafenib]
decrease in sorafenib absorption with a high-fat diet ([6]; clinically important interaction): 30%
share in the systemic circulation ([6]; sorafenib unchanged or as sorafenib N-oxide): 70−85%
protein-bound form in plasma [8]: 99.5%

Cl/F ([9]; rat plasma, single oral metformin 100 mg/kg b.w. alone (VMET group)): 6.31 ± 1.48 (23.5) L/h
AUC0-t [9, 17]: 3.64 ± 1.15 (31.6) µg × h/mL
AUC0-∞ [9, 17]: 10.88 ± 4.50 (41.4) µg × h/mL
Cl/F [9, 17]: 5.50 ± 3.08 (56.0) L/h
Cmax [9, 17]: 0.46 ± 0.26 (56.5) µg/mL
MRT0-t [9, 17]: 8.65 ± 2.22 (25.7) h
Vd/F [9, 17]: 297.89 ± 133.23 (44.7) L
k el [9, 17]: 0.03 ± 0.04 (133.3) h^−1
tmax [9, 17]: 1.88 ± 0.23 (12.2) h
increase in tmax with co-administered sorafenib ([9]; rats, IISOR+MET group vs VMET group): 71.39%
AUC0-t (in vivo): 3830 ± 1230 ng·h/mL
AUC(0-inf) (in vivo): 7900 ± 1930 ng·h/mL
Cmax (in vivo): 500 ± 290 ng/mL
MRT last (in vivo): 9.81 ± 1.27 h
Vd/F (in vivo): 228 ± 91 L
k el (in vivo): 8.33e-06 s⁻¹
tmax (in vivo): 1.09 ± 0.57 h
SMILES: CN(C)C(=N)N=C(N)N [metformin]
adverse effects ([3]; 100 mg/kg single oral dose): did not cause any adverse effects
plasma protein-bound fraction [8]: negligible
